Results taken from patent US5773424A, “Treatment of toxoplasmosis” (priority 1994, dated 1998).
Read-outs that look alike come from different tables or passages of the source.

Target: T. gondii adenosine kinase (Toxoplasma gondii, UniProt Q9TVW2)
Assay: biochemical
Details: for inhibition at 1000 µM: read-out: Inhibition of T. gondii adenosine kinase; for Decrease in binding to T. gondii adenosine kinase: relative to reference compound adenosine
Description: Preparation of cytosol extracts. For the structure activity relationships studies, approximately 5×10^8 T. gondii were suspended in 1.2 ml of 50 mM N-2-hydroxyethylpiperazine-N'-2-ethanesulfonic acid (HEPES)-Cl (pH 8.0)/1 mM dithiothreitol and homogenized for 30 seconds at setting 10, using a Brinnmann Instruments Polytron homogenizer fitted with a PTA 7K1 probe. The homogenate was then centrifuged at approximately 116,000 g for 1 hour at 5° and the supernatant (cytosol extract) collected and used as the enzyme source. Fresh cytosol extracts were prepared for each experiment.
Adenosine kinase assay. T. gondii adenosine kinase activity was measured by following the formation of [^14 C]AMP from [^14 C]adenosine and ATP. […] Therefore, the standard reaction mixture contained 50 mM HEPES-Cl (pH 8.0), 1 mM dithiothreitol, 5 μM [8-^14 C]adenosine (45 Ci/mol), 0.5 mM ATP, 0.5 mM MgCl2, 25 μM (+)-EHNA or 100 μM (±)-EHNA,10-30 μl of cytosol extract (approximately 3-10 μg of protein), and either 0, 0.1, 0.25, 0.5 or 1.0 mM of the compound to be tested, in a final volume of 150 μl.
Reactions were started by the addition of [8-^14 C]adenosine, incubated at 37° for 10 minutes and terminated by placing the reaction tubes in a boiling water bath for 2 minutes. Precipitated proteins were removed by centrifugation in a microcentrifuge (approximately 13,000 g) for 5 minutes, and a 15 μl aliquot of the resulting supernatant was mixed with 5 μl of a solution containing 10 mM each of AMP and adenosine. This mixture was then spotted on silica gel thin layer chromatography plates which were developed with a mixture of chloroform/methanol/acetic acid (16:3:1). […] The substrate and product spots (which accounted for all of the radioactivity on the plates) were identified by UV quenching, cut out, and the radioactivity quantitated by liquid scintillation counting in 20 ml of Scintilene, using a Packard 460 scintillation counter. […] Enzyme velocity was calculated by multiplying the fraction of AMP formed from adenosine times the amount of adenosine in the assay, and dividing by the incubation time.
Determination and significance of AppKi values. AppKi values were used to determine the relative degree of binding of compounds to adenosine kinase as compared to adenosine. AppKi values were estimated from Dixon plots of the data (1/.nu. versus [I]), using a computer program with least squares fitting according to the general principles of Cleland (Cleland, W W, The statistical analysis of enzyme kinetic data. Adv. Enzymol. 29:1-32, 1967). The program was written by Dr. Sungman Cha (Brown University, Providence, R.I.) and modified to fit IBM BASIC by Dr. Fardos N. M. Naguib. […] It should be noted, however, that the type of inhibition (i.e., competitive, noncompetitive, or uncompetitive) produced by the compounds was not determined, nor were the compounds evaluated as substrates for T. gondii adenosine kinase.

[1] = AppKi for inhibition of T. gondii adenosine kinase, 5 μM adenosine, ± range, at least two estimations

Sequence of T. gondii adenosine kinase (Q9TVW2 whole entry): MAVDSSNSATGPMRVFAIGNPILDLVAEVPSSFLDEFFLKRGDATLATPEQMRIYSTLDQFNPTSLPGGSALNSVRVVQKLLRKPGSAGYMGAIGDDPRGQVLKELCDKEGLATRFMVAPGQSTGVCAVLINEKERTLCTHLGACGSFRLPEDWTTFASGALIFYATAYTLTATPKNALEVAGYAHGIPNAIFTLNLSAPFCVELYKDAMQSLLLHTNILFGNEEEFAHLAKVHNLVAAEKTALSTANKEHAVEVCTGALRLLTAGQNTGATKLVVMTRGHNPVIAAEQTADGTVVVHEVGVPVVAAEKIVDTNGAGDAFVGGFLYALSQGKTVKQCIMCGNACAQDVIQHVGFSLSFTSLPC

Compound | Ki | also measured
Nc1ncnc2c1nnn2[C@@H]1O[C@H](CO)[C@@H](O)[C@H]1O [Compound 57] | 23 ± 6 µM | 
OC[C@H]1O[C@@H](n2cnc3c(NC4CCCC4)nc(Cl)nc32)[C@H](O)[C@@H]1O [Compound 66] |  | Ki [1]: 390 ± 90 µM
C=CCNc1ncnc2c1ncn2[C@@H]1O[C@H](CO)[C@@H](O)[C@H]1O [Compound 30] | 220 ± 20 µM | 
OC[C@H]1O[C@@H](n2cnc3c(NCc4ccccc4)ncnc32)[C@H](O)[C@@H]1O [Compound 45] | 100 ± 30 µM | 
CCCCNc1ncnc2c1ncn2[C@@H]1O[C@H](CO)[C@@H](O)[C@H]1O [Compound 32] | 220 ± 90 µM | 
Nc1ncnc2c1ncn2[C@@H]1O[C@H](CCl)[C@@H](O)[C@H]1O [Compound 95, 5'-Chloro-5'-deoxyadenosine] | 210 ± 10 µM | 
CC(=O)OC[C@H]1O[C@@H](n2cnc3c(N)ncnc32)[C@H](O)[C@@H]1OC(C)=O [Compound 110, 3',5'-Di-O-acetyladenosine] |  | inhibition at 1000 µM: < 10%
CO[C@@H]1[C@H](O)[C@@H](CO)O[C@H]1n1cnc2c(N)ncnc21 [Compound 88, 2'-O-Methyladenosine] |  | inhibition at 1000 µM: < 10%; Effect on binding to T. gondii adenosine kinase, in words (relative to adenosine): abolishes
COc1ccc(C[C@H](N)C(=O)N[C@H]2[C@@H](O)[C@H](n3cnc4c(N(C)C)ncnc43)O[C@@H]2CO)cc1 [Compound 124, 3'(α-Amino-p-methoxyhydrocinnamamido)-3'-deoxy-N^6-dimethyladenosine (Puromycin)] | 1300 µM | 
OC[C@H]1O[C@@H](n2cnc3c(Nc4ccccc4)ncnc32)[C@H](O)[C@@H]1O [Compound 43] | 88 ± 12 µM | 
Cn1cnc2c(ncn2[C@H]2C[C@H](O)[C@@H](CO)O2)c1=N [Compound 116, 1-Methyl-2'-deoxyadenosine] | 8000 µM | 
NC(=O)c1ncn([C@@H]2O[C@H](CO)[C@@H](O)[C@H]2O)c1N [Compound 123, 5'-Aminoimidazole-4-carboxamide riboside] | 2400 µM | 
OC[C@H]1O[C@@H](n2cnc3c(Br)ncnc32)[C@H](O)[C@@H]1O [Compound 12] | 28 ± 2 µM | 
CCCCCCNc1ncnc2c1ncn2[C@@H]1O[C@H](CO)[C@@H](O)[C@H]1O [Compound 39] | 76 ± 4 µM | 
C[C@H]1O[C@@H](n2cnc3c(N)ncnc32)[C@H](O)[C@@H]1O [Compound 93, 5'-Deoxyadenosine] | 40 ± 3 µM | Decrease in binding to T. gondii adenosine kinase: 5.7 fold
Nc1ncnc2c1ncn2[C@H]1CC[C@@H](CO)O1 [Compound 106, 2',3'-Dideoxyadenosine] | 5500 µM | 
Nc1ncnc2c1ncn2[C@@H]1C=C(CO)[C@@H](O)[C@H]1O [Compound 114, Neplanocin A] | 37 ± 10 µM | Decrease in binding to T. gondii adenosine kinase: 5.3 fold
CCCCCCC(C(C)O)n1cnc2c(N)ncnc21 (racemic) [Compound 113, (±)-EHNA] |  | inhibition at 1000 µM: < 10%
Nc1ncnc2c1ncn2[C@@H]1O[C@](F)(COS(N)(=O)=O)[C@@H](O)[C@H]1O [Compound 111, 4'-Flouro-5'-O-sulfamoyladenosine (nucleocidin)] |  | Ki [1]: 850 ± 220 µM
N#Cc1cn([C@@H]2O[C@H](CO)[C@@H](O)[C@H]2O)c2ncnc(N)c12 [Compound 54, 7-Cyano-7-deazaadenosine (Toyocamycin)] |  | Ki [1]: < 60 µM
COc1ncnc2c1ncn2[C@@H]1O[C@H](CO)[C@@H](O)[C@H]1O [Compound 16] | 370 ± 40 µM | 
Nc1nc2c(ncn2[C@@H]2O[C@H](CO)[C@@H](O)[C@H]2O)c(=O)[nH]1 [Compound 64] |  | inhibition at 1000 µM: < 10%
Nc1nc(Nc2ccccc2)nc2c1ncn2[C@@H]1O[C@H](CO)[C@@H](O)[C@H]1O [Compound 9] |  | inhibition at 1000 µM: < 10%
Nc1nc2c(ncn2[C@@H]2O[C@H](CO)[C@@H](O)[C@H]2F)c(=O)[nH]1 [Compound 121, 2'-Fluoro-2'-deoxyguanosine] |  | inhibition at 1000 µM: < 10%
Cc1ccc(S(=O)(=O)O[C@@H]2[C@H](O)[C@@H](CO)O[C@H]2n2cnc3c(N)ncnc32)cc1 [Compound 89, 2'Tosyladenosine] |  | inhibition at 1000 µM: < 10%

Compound | Ki | also measured
CCSc1ncnc2c1ncn2[C@@H]1O[C@H](CO)[C@@H](O)[C@H]1O [Compound 19] | 330 ± 3 µM | 
O=c1[nH]cnc(NC2C=C(CO)C(O)C2O)c1[N+](=O)[O-] (centres unmarked) [Compound 126, 4-(3-Hydroxymethyl-4,5-dihydroxy-2-cyclopenten-1-yl)amino-1,6-dihydro-5-nitro-6-oxopyrimidine] |  | inhibition at 1000 µM: < 10%
O=c1[nH]c(=O)c2ncn([C@@H]3O[C@H](CO)[C@@H](O)[C@H]3O)c2[nH]1 [Compound 67] |  | inhibition at 1000 µM: < 10%
CCSc1ncnc2c1cnn2[C@@H]1O[C@H](CO)[C@@H](O)[C@H]1O [Compound 76, 8-Aza-6-ethylmercapto-7-deazapurine riboside] | 210 ± 100 µM | 
Nc1ncnc2c1c(Cl)cn2[C@@H]1O[C@H](CO)[C@@H](O)[C@H]1O [Compound 52] |  | Ki [1]: 10 ± 1 µM
CNC(=O)[C@H]1O[C@@H](n2cnc3c(N)ncnc32)[C@H](O)[C@@H]1O [Compound 102, 5'-N-(Methyl)carboxamidoadenosine] |  | inhibition at 1000 µM: < 10%
NC(=NO)c1c(Br)n([C@@H]2O[C@H](CO)[C@@H](O)[C@H]2O)c2ncnc(N)c12 [Compound 73, 8-Bromo-7-carboxyamidoxime-7-deazaadenosine] | 210 ± 30 µM | 
COc1ccc(C2OC3C(CO)OC(n4cnc5c(N)ncnc54)C3O2)cc1 (centres unmarked) [Compound 108, 2',3'-O-p-Anisylidene adenosine] | 1400 µM | 
C[C@H](Cc1ccccc1)Nc1ncnc2c1ncn2[C@@H]1O[C@H](CO)[C@@H](O)[C@H]1O [Compound 49] | 750 ± 30 µM | 
Nc1ncnc2c1ncn2[C@@H]1C[C@H](CO)[C@@H](O)[C@H]1O (relative stereo) [Compound 112, Carbocyclic adenosine] |  | Ki (read-out: AppKi for inhibition of T. gondii adenosine kinase, 5 μM adenosine, ± range, at least two estimations): 170 ± 30 µM
OC[C@H]1O[C@@H](n2ccc3c(Cl)ncnc32)[C@H](O)[C@@H]1O [Compound 68] | 72 ± 12 µM | 
Nc1nccc2c1ncn2[C@@H]1O[C@H](CO)[C@@H](O)[C@H]1O [Compound 10] |  | inhibition at 1000 µM: < 10%
CC(C)=CCNc1ncnc2c1ncn2[C@@H]1O[C@H](CO)[C@@H](O)[C@H]1O [Compound 36] |  | Ki [1]: 51 ± 4 µM
Nc1ncnc2c1ncn2[C@@H]1O[C@H](CI)[C@@H](O)[C@H]1O [Compound 96, 5'-Iodo-5'-deoxyadenosine] |  | Ki [1]: 230 ± 10 µM
NNc1c(C(N)=O)c2c(N)ncnc2n1[C@@H]1O[C@H](CO)[C@@H](O)[C@H]1O [Compound 74, 8-Hydrazino-7-carboxamido-7-deazaadenosine (6-Hydrazinosangivamycin)] | 160 ± 9 µM | 
O=[N+]([O-])c1ccc(CSc2ncnc3c2ncn3[C@@H]2O[C@H](CO)[C@@H](O)[C@H]2O)cc1 [Compound 21] |  | Ki [1]: 140 ± 10 µM
Nc1ncnc2c1ncn2[C@@H]1O[C@H](COS(=O)(=O)O)[C@@H](O)[C@H]1O [Compound 97, 5'-Sufonyl adenosine (adenosine 5'-monosulfate)] |  | Ki [1]: 210 ± 60 µM
Cn1cnc2c(ncn2[C@@H]2O[C@H](CO)[C@@H](O)[C@H]2O)c1=N [Compound 6] | 88 ± 28 µM | 
OC[C@H]1O[C@@H](n2cnc3cccnc32)[C@H](O)[C@@H]1O [Compound 61] |  | inhibition at 1000 µM: < 10%
Nc1ncnc2c1ncn2[C@H]1O[C@H](CO)[C@@H](O)[C@H]1O [Compound 3] | 8400 µM | 
OC[C@H]1O[C@@H](n2cnc3c(Cl)ncnc32)[C@H](O)[C@@H]1O [Compound 13, 6-Chloropurine riboside] | 9.5 µM | 
NC(=O)c1cn([C@@H]2O[C@H](CO)[C@@H](O)[C@H]2O)c2nc[n+]([O-])c(N)c12 [Compound 80, 7-Carboxamido-7-deazaadenosine-N^1-oxide] | 780 ± 70 µM | 
OC[C@H]1O[C@@H](n2cnc3c(NC4CCCCC4)ncnc32)[C@H](O)[C@@H]1O [Compound 40] | 240 ± 70 µM | 
O=c1[nH]cnc2c([C@@H]3O[C@H](CO)[C@@H](O)[C@H]3O)n[nH]c12 [Compound 82, 8-Aza-9-deazainosine (formycin B)] | 3100 µM | 
OC[C@H]1O[C@@H](n2cnc3c(NCc4ccco4)ncnc32)[C@H](O)[C@@H]1O [Compound 38] | 180 ± 10 µM | 
